This passage reports TGI and GI50 results from PubChem BioAssay (NCI).

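The compound was tested at five concentrations on cells cultured in 96-well plates, with a 48-hour exposure period. Abbreviation: GI50, concentration required for 50% inhibition of growth. At the TGI there is no net growth.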 Bounds are passed on as bounds.

Some test systems named below: A549 NSCLC; BT-549 breast; EKVX NSCLC; HCT-15 colon; HS 578T breast; RPMI-8226 leukemia; SN12C renal; SNB-75 CNS; MOLT-4 leukemia.
Holding throughout (experiment): NCI-60 cell line screen, 48 h

`Cc1nc2ccccc2nc1N1CCCC1`: the TGI in the test on A549 NSCLC, with BT-549 breast, in the test on EKVX NSCLC, in the test on HCT-15 colon, with HS 578T breast and in the test on RPMI-8226 leukemia was more than 100 µM in each case. The TGI in the test with SN12C renal and in the test with SNB-75 CNS was more than 100 µM throughout.
For `Fc1sc2c(c1F)C1CCC2C1` (stereo unspecified), the TGI was more than 100 µM in the test with A549 NSCLC; more than 100 µM in the test on EKVX NSCLC; more than 100 µM in the test on HCT-15 colon; 69.6 µM in the test on HS 578T breast; 86.8 µM with MOLT-4 leukemia; 87.1 µM in the test on RPMI-8226 leukemia. In addition, the TGI with SN12C renal and in the test with SNB-75 CNS was more than 100 µM each time.
As for H-KIFKKFKTIIKKVWRIFGRF-NH2, the GI50 was 3540 nM in the test with BT-549 breast, 3130 nM in the test with MOLT-4 leukemia, 3110 nM with RPMI-8226 leukemia and 2500 nM in the test with SNB-75 CNS. For the same compound, the TGI is more than 100 µM in the test with BT-549 breast, more than 100 µM in the test with MOLT-4 leukemia, more than 100 µM with RPMI-8226 leukemia and 6.99 µM in the test on SNB-75 CNS.
As for `CC(=O)c1nc(C#N)c(N)o1`, the TGI in the test with A549 NSCLC, with EKVX NSCLC, with HCT-15 colon, in the test on HS 578T breast, in the test on MOLT-4 leukemia and with RPMI-8226 leukemia was more than 100 µM in each case. The TGI in the test on SN12C renal and with SNB-75 CNS was more than 100 µM in each case.
In the case of `N#CC(NNC(=O)c1c(Cl)c(Cl)c(Cl)c(Cl)c1-c1nc2ccc(C(=O)c3ccccc3)cc2[nH]1)c1cccc(Oc2ccccc2)c1` (stereo unspecified), the TGI in the test on A549 NSCLC is more than 100 µM; in the test on BT-549 breast, 64.8 µM; with EKVX NSCLC it was 37.6 µM; with HCT-15 colon, 53.3 µM; in the test on MOLT-4 leukemia, more than 100 µM; in the test with RPMI-8226 leukemia, 91.8 µM. Moreover, the TGI in the test on SN12C renal was determined as 67.2 µM; with SNB-75 CNS it was 72.8 µM.
In the case of `CC1CC2OC(=N)C1(C#N)C2(C#N)C#N` (stereo unspecified), the TGI was more than 100 µM in the test with A549 NSCLC; 51.1 µM in the test with EKVX NSCLC; 30.6 µM with HCT-15 colon; more than 100 µM with HS 578T breast; more than 100 µM in the test with MOLT-4 leukemia; 48 µM with RPMI-8226 leukemia. Besides, the TGI is 33.6 µM in the test on SN12C renal and 43.1 µM in the test on SNB-75 CNS.
With `Cc1cccc(-c2cc(=O)c3cc(C)cnc3[nH]2)c1`, the TGI was more than 100 µM with A549 NSCLC; more than 58.3 µM in the test with BT-549 breast; more than 100 µM with EKVX NSCLC; more than 26.8 µM in the test with HCT-15 colon; more than 100 µM in the test with MOLT-4 leukemia; 30.1 µM with RPMI-8226 leukemia. The TGI in the test on SN12C renal is more than 94.6 µM; in the test on SNB-75 CNS, more than 100 µM.
Regarding `CN1C(=O)[C@](C)(Cc2ccc(F)cc2)N(C(=O)OC(C)(C)C)[C@@H]1C(C)(C)C`, the TGI was more than 100 µM in the test with A549 NSCLC; more than 100 µM with BT-549 breast; more than 100 µM with EKVX NSCLC; more than 100 µM in the test with HCT-15 colon; 40.6 µM with MOLT-4 leukemia; 49.4 µM in the test on RPMI-8226 leukemia. The TGI in the test on SN12C renal is 32.4 µM; with SNB-75 CNS, more than 100 µM.
On to `COc1ccc(C(OCC2OC(n3ccc(Oc4c(F)c(F)c(F)c(F)c4F)nc3=O)CC2OP(OCCC#N)N(C(C)C)C(C)C)(c2ccccc2)c2ccc(OC)cc2)cc1` (stereo unspecified), for which the TGI in the test on A549 NSCLC, with BT-549 breast, with HCT-15 colon, with HS 578T breast, with MOLT-4 leukemia and in the test with RPMI-8226 leukemia was more than 100 µM throughout. The TGI with SN12C renal and in the test on SNB-75 CNS was more than 100 µM throughout.
Take `Nc1nn2cc(-c3ccccc3)[n+](CC(=O)c3ccccc3)c2s1`: the TGI in the test with A549 NSCLC is more than 100 µM; in the test on BT-549 breast, 40.5 µM; with EKVX NSCLC, more than 100 µM; with HCT-15 colon, more than 100 µM; with HS 578T breast it was 43.6 µM; in the test on MOLT-4 leukemia, 51.2 µM. For the same compound, the TGI with RPMI-8226 leukemia is 37.3 µM; in the test on SN12C renal it was more than 100 µM.
In the case of `CCOC(=O)CCN1C(=O)c2c(NC(=O)C(=O)O)cccc2S1(=O)=O`, the TGI in the test on A549 NSCLC, in the test with BT-549 breast, with EKVX NSCLC, in the test on HCT-15 colon, in the test on HS 578T breast and in the test with MOLT-4 leukemia was more than 100 µM in each case. In addition, the TGI with RPMI-8226 leukemia and with SN12C renal was more than 100 µM in each case.
For the compound `COc1ccc(Cn2nc(OCc3ccccc3)c3cc([N+](=O)[O-])ccc32)cc1`, the TGI in the test with A549 NSCLC, in the test with HCT-15 colon, with HS 578T breast, in the test on MOLT-4 leukemia, in the test with RPMI-8226 leukemia and in the test with SN12C renal was more than 100 µM in each case. The compound also registered a TGI in the test with SNB-75 CNS of more than 100 µM.
For `Cc1nc2cccc(F)c2c(=O)n1-c1nnc(C2CC2)s1`, the TGI in the test on A549 NSCLC, in the test on EKVX NSCLC, in the test on HCT-15 colon, with HS 578T breast, in the test on MOLT-4 leukemia and with RPMI-8226 leukemia was more than 10 µM throughout. The TGI in the test on SN12C renal and in the test on SNB-75 CNS was more than 10 µM in each case.
For `CC1C/C(=C\c2ccc(O)c(O)c2)C(=O)/C(=C/c2ccc(O)c(O)c2)C1` (stereo unspecified), the TGI in the test with A549 NSCLC amounted to 32.8 µM; in the test with EKVX NSCLC, 30.1 µM; in the test on HCT-15 colon it was 25.5 µM; in the test on HS 578T breast it was 24.9 µM; with MOLT-4 leukemia, 20.3 µM; in the test on SN12C renal, 20.4 µM. Moreover, the TGI in the test with SNB-75 CNS was 16.7 µM.
Regarding `COc1ccc(Nc2ccnc3cc(Cl)ccc23)cc1CN(CCCl)CCCl`, the GI50 with A549 NSCLC is 1690 nM; in the test with BT-549 breast it was 1780 nM; with EKVX NSCLC, 1900 nM; in the test with HCT-15 colon, 1850 nM; in the test on HS 578T breast it was 3.14 µM; in the test on MOLT-4 leukemia, 662 nM. In addition, the GI50 in the test on RPMI-8226 leukemia was 1150 nM; in the test on SN12C renal, 1240 nM. Besides, the TGI was more than 28.5 µM in the test on A549 NSCLC; 13 µM with BT-549 breast; more than 21.5 µM in the test on EKVX NSCLC; 6.44 µM in the test with HCT-15 colon; more than 100 µM in the test on HS 578T breast; 2.61 µM with MOLT-4 leukemia. Further, the TGI turned out to be 4.85 µM with RPMI-8226 leukemia and 6 µM with SN12C renal.
